The inhibition is the change of the read-out against control, counted positive when it falls.

Experimental findings from paper PMC11855827, “High-Throughput Screening of Five Compound Libraries for Anthelmintic Activity and Toxicity Leads to the Discovery of Two Flavonoid Compounds” (International Journal of Molecular Sciences, 2025) are described below.

This assay relates to C. elegans. The assay can be described thus: microbe, parasite or virus in culture. Particulars: Caenorhabditis elegans.
[1] abbreviates: 0 h, read-out: Percentage of motility inhibition 0 h, Table S2, C. elegans SS assay, 110 μM, 0 h, averages of 4 data points.
Where [2] appears, read: 24 h, read-out: Percentage of motility inhibition 24 h, Table S2, C. elegans SS assay, 110 μM, 24 h, averages of 4 data points.

Where two headings read alike, the source gives them in different places.

Regarding `C/C=C(/C)C(=O)O[C@H]1C(C)=C[C@]23C(=O)[C@@H](C=C(CO)[C@@H](O)[C@]12O)[C@H]1[C@@H](C[C@H]3C)C1(C)C` [Ingenol Mebutate], the inhibition at 110 µM runs as follows: under setting [1], 1%; under setting [2], 0%.
As for `CC1(C)[C@@H](O[C@H]2O[C@H](C(=O)O)[C@@H](O)[C@H](O)[C@H]2O[C@@H]2O[C@H](C(=O)O)[C@@H](O)[C@H](O)[C@H]2O)CC[C@]2(C)[C@H]3C(=O)C=C4[C@@H]5C[C@@](C)(C(=O)O)CC[C@]5(C)CC[C@@]4(C)[C@]3(C)CC[C@@H]12` [Glycyrrhizic acid], the inhibition at 110 µM reads like this: under setting [1], 0%; under setting [2], 0%.
On to `COc1cc(O)ccc1/C=C/C(=O)c1ccc(O)cc1` [Echinatin], for which the inhibition at 110 µM came out at 17% under setting [1] and 10% under setting [2].
In the same order, the values of `C[C@@H](O)[C@H]1C(=O)N2C(C(=O)[O-])=C(SC3Cn4cnc[n+]4C3)[C@H](C)[C@H]12` (some centres unmarked) [Biapenem] are 18% and 3%.
`O=C(/C=C/c1ccccc1)OC[C@H]1O[C@@H](O[C@@H]2OC=C[C@H]3[C@H](O)[C@@H]4O[C@]4(CO)[C@@H]23)[C@H](O)[C@@H](O)[C@@H]1O` [Picroside I]: the inhibition at 110 µM came to 6% under setting [1] and 17% under setting [2].
In the same order, the values of `C[C@H](CCC(=O)O)[C@H]1CC[C@H]2[C@@H]3C[C@H](O)[C@@H]4C[C@H](O)CC[C@]4(C)[C@H]3CC[C@]12C` [Hyodeoxycholic acid] are 2% and 18%.
For `Cc1ncc(COP(=O)(O)O)c(C=O)c1O` [Pyridoxal phosphate], the inhibition at 110 µM under setting [1] is 11% and the inhibition at 110 µM under setting [2] came out at 4%.
Take `CCCCCCCCCCOc1cc2c(O)c(C(=O)OCC)cnc2cc1OCC` [Decoquinate]: the inhibition at 110 µM runs as follows: under setting [1], 13%; under setting [2], 1%.
Taken in the same sequence, the figures for `CC1=C(O)C(=O)C=C2C1=CC=C1[C@@]2(C)CC[C@@]2(C)[C@@H]3C[C@](C)(C(=O)O)CC[C@]3(C)CC[C@]12C` [Celastrol] were 0% and 13%.
With `COc1ccc([C@@H](O)CNC(=O)/C=C/c2ccccc2)cc1` (racemic) [Aegeline], the inhibition at 110 µM by setting is: under setting [1], 4%; under setting [2], 6%.
In the case of `CN(CC(=O)O)C(=N)N` [Creatine], the inhibition at 110 µM reads like this: under setting [1], 4%; under setting [2], 9%.
As to `C[n+]1cccc(C(=O)[O-])c1` [Trigonelline], the inhibition at 110 µM by setting is: under setting [1], 0%; under setting [2], 0%.
With `C=CC1=C(C)c2cc3[nH]c(cc4nc(cc5[nH]c(cc1n2)c(C)c5CCC(=O)O)C(CCC(=O)O)=C4C)c(C)c3C=C` [Protoporphyrin IX], the inhibition at 110 µM amounted to 3% under setting [1] and 17% under setting [2].
Taken in the same sequence, the figures for `CC(=O)OC(C)(C)/C=C/C(=O)[C@](C)(O)[C@H]1[C@H](O)C[C@@]2(C)[C@@H]3CC=C4[C@@H](C=C(O)C(=O)C4(C)C)[C@]3(C)C(=O)C[C@]12C` [Cucurbitacin E] were 0% and 11%.
Turning to `COc1c(/C=C/C(=O)c2ccc(O)c(CC=C(C)C)c2)ccc(O)c1O` [Licochal cone D], the inhibition at 110 µM was found to be 15% under setting [1] and 0% under setting [2].
In the same order, the values of `C=C[C@H]1CN2CC[C@]3(C(=O)Nc4ccccc43)[C@@H]2C[C@@H]1/C(=C\OC)C(=O)OC` [Corynoxeine] are 0% and 2%.
Taken in the same sequence, the figures for `CCOC(=O)CCC(=O)O[C@H]1[C@H](O[C@@H]2[C@@H](C)[C@H](O[C@H]3C[C@@](C)(OC)[C@@H](O)[C@H](C)O3)[C@@H](C)C(=O)O[C@H](CC)[C@@](C)(O)[C@H](O)[C@@H](C)C(=O)[C@H](C)C[C@@]2(C)O)O[C@H](C)C[C@@H]1N(C)C` [Erythromycin Ethylsuccinate] were 24% and 7%.
Taken in the same sequence, the figures for `Nc1[nH]c(=O)ncc1F` [Flucytosine] were 23% and 32%.
For the compound `C[C@]12CC[C@@H]3c4ccc(O)cc4CC[C@H]3[C@@H]1CC[C@@H]2O` [Estradiol], the inhibition at 110 µM reads like this: under setting [1], 1%; under setting [2], 2%.
Take `CC[C@H]1OC(=O)C[C@@H](O)[C@H](C)[C@@H](O[C@@H]2O[C@H](C)[C@@H](O[C@H]3C[C@@](C)(O)[C@@H](O)[C@H](C)O3)[C@H](N(C)C)[C@H]2O)[C@@H](CC=O)C[C@@H](C)C(=O)/C=C/C(C)=C/[C@@H]1CO[C@@H]1O[C@H](C)[C@@H](O)[C@@H](OC)[C@H]1OC` [Tylosin]: the inhibition at 110 µM is, setting by setting: under setting [1], 22%; under setting [2], 0%.
In the same order, the values of `NCCc1c[nH]cn1` [Histamine] are 5% and 6%.
As for `CC(=O)O[C@]12CCC(C)=CC[C@]13CC[C@H]2[C@@](C)(/C=C/C=C(\C)C(=O)O)OC3=O` [Pseudolaric Acid A], the inhibition at 110 µM stood at 6% under setting [1] and 13% under setting [2].
In the same order, the values of `CN1CCc2cc3c(c4c2C1Cc1ccccc1-4)OCO3` (centres unmarked) [Roemerine] are 0% and 0%.
Taken in the same sequence, the figures for `OC[C@H]1O[C@@H](O[C@@H]2OC=C[C@H]3[C@H](O)[C@@H]4O[C@]4(CO)[C@@H]23)[C@H](O)[C@@H](O)[C@@H]1O` [Catalpol] were 0% and 16%.
Regarding `O=c1ccc2nccc3c4ccccc4n1c23` [Canthin‐6‐one], the inhibition at 110 µM under setting [1] was 0% and the inhibition at 110 µM under setting [2] is 15%.
With `CC(C)=CCC[C@](C)(O[C@@H]1O[C@H](CO)[C@@H](O)[C@H](O)[C@H]1O)[C@H]1CC[C@]2(C)[C@@H]1[C@H](O)C[C@@H]1[C@@]3(C)CC[C@H](O)C(C)(C)[C@@H]3[C@@H](O)C[C@]12C` [Ginsenoside F1], the inhibition at 110 µM under setting [1] was determined as 10% and the inhibition at 110 µM under setting [2] is 2%.
Taken in the same sequence, the figures for `O=C(/C=C/c1ccccc1)c1ccc(O)cc1` [4'‐Hydroxychalcone] were 39% and 15%.
Regarding `O=C1CCC[C@@H]2[C@H]3CCCN4CCC[C@@H](CN12)[C@@H]34` [Matrine], the inhibition at 110 µM under setting [2] came to 2%.
In the case of `Cc1cc(C#N)cc(C)c1Oc1nc(Nc2ccc(C#N)cc2)nc(N)c1Br` [Etravirine], the inhibition at 110 µM is 17% under setting [1] and 2% under setting [2].
For the compound `Oc1c(Br)cc(Br)c2cccnc12` [Broxyquinoline], the inhibition at 110 µM is, setting by setting: under setting [1], 0%; under setting [2], 8%.
`O[C@H]1[C@H](O)[C@@H](O)[C@H](O)[C@@H](O)[C@H]1O` [i-Inositol]: the inhibition at 110 µM runs as follows: under setting [1], 0%; under setting [2], 0%.
Take `Cc1oc(=O)oc1CN1CCN(c2cc3c(cc2F)c(=O)c(C(=O)O)c2n3C(C)S2)CC1` (centres unmarked) [Prulifloxacin]: the inhibition at 110 µM came out at 27% under setting [1] and 0% under setting [2].
In the case of `CN(C)[C@@H]1C(O)=C(C(N)=O)C(=O)[C@@]2(O)C(O)=C3C(=O)c4c(O)cccc4[C@@](C)(O)[C@H]3[C@H](O)[C@@H]12` [Oxytetracycline], the inhibition at 110 µM was found to be 20% under setting [1] and 13% under setting [2].
Taken in the same sequence, the figures for `O=C(O)/C=C/C(=O)O` [Fumaric acid] were 8% and 5%.
As to `N#C[C@H](O[C@@H]1O[C@H](CO[C@@H]2O[C@H](CO)[C@@H](O)[C@H](O)[C@H]2O)[C@@H](O)[C@H](O)[C@H]1O)c1ccccc1` [Amygdalin], the inhibition at 110 µM is, setting by setting: under setting [1], 13%; under setting [2], 0%.
As for `C=C1CC[C@@H]2[C@](C)(CO)CCC[C@@]2(C)[C@@H]1CCC1=CCOC1=O` [Andrograpanin], the inhibition at 110 µM is 3% under setting [1] and 20% under setting [2].
Taken in the same sequence, the figures for `COC(=O)c1c2c(c3ccccc3c1O)OC(C)(C)C=C2` [Mollugin] were 1% and 12%.
Regarding `CCN1C[C@]2(COC)CC[C@H](OC)[C@]34C1[C@H]([C@H](OC)[C@H]23)[C@@]1(OC(C)=O)C[C@H](OC)[C@@]2(O)C[C@@H]4[C@@H]1[C@H]2OC(=O)c1ccc(OC)cc1` [Crassicauline A], the inhibition at 110 µM came out at 0% under setting [1] and 0% under setting [2].
As for `C=C1C(=O)O[C@H]2[C@H]1CCC(C)=C1CC[C@@](C)(O)[C@@H]12` [Micheliolide], the inhibition at 110 µM under setting [1] is 0% and the inhibition at 110 µM under setting [2] came out at 0%.
Consider `O=C(CC1NCCCC1O)Cn1cnc2cc(Br)c(Cl)cc2c1=O` (centres unmarked) [Halofuginone], for which the inhibition at 110 µM stood at 18% under setting [1] and 11% under setting [2].
`C/C(=C\CC[C@@H](C)[C@H]1CC[C@@]2(C)C3=C(CC[C@]12C)[C@@]1(C)CCC(=O)C(C)(C)[C@@H]1CC3=O)C(=O)O` [Ganoderic acid DM]: the inhibition at 110 µM was 6% (0 h, read-out: Percentage of motility inhibition 0 h) and 1% (24 h, read-out: Percentage of motility inhibition 24 h).
As to `Cc1ccnc(NS(=O)(=O)c2ccc(N)cc2)n1` [Sulfamerazine], the inhibition at 110 µM under setting [1] turned out to be 12% and the inhibition at 110 µM under setting [2] came out at 7%.
As for `CC(C)CN(C[C@@H](O)[C@H](Cc1ccccc1)NC(=O)O[C@H]1CCOC1)S(=O)(=O)c1ccc(N)cc1` [Amprenavir], the inhibition at 110 µM is, setting by setting: under setting [1], 41%; under setting [2], 34%.
In the same order, the values of `C=C(C)[C@@H]1CC[C@]2(C)CC[C@]3(C)[C@H](CC[C@@H]4[C@@]5(C)CC[C@H](O)C(C)(C)[C@@H]5CC[C@]43C)[C@@H]12` [Lupeol] are 0% and 0%.
In the same order, the values of `CC(C)=CCC[C@](C)(O[C@@H]1O[C@H](CO)[C@@H](O)[C@H](O)[C@H]1O)[C@H]1CC[C@]2(C)[C@@H]1[C@H](O)C[C@@H]1[C@@]3(C)CC[C@H](O)C(C)(C)[C@@H]3[C@@H](O[C@@H]3O[C@H](CO)[C@@H](O)[C@H](O)[C@H]3O)C[C@]12C` [Ginsenoside Rg1] are 0% and 0%.
